Results from the supplement of paper PMC10307832.

Tests used:
Assay in all cases: relative viability (nuclei count vs DMSO), 5 days (fraction); higher = more cells survive
Dovitinib + Dasatinib = compound: CN1CCN(c2ccc3nc(-c4c(N)c5c(F)cccc5[nH]c4=O)[nH]c3c2)CC1 [Dovitinib] + Cc1nc(Nc2ncc(C(=O)Nc3c(C)cccc3Cl)s2)cc(N2CCN(CCO)CC2)n1 [Dasatinib] (partner 0.075 µM)
Outline: (§1)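 Relative viability divides the nuclei count in treated wells by that in vehicle wells. Lung cancer cell lines were seeded in 1536-well plates, dosed by pin tool the next day, and fixed and stained after 5 days in one step with final 0.05% Triton X-100, 1% formaldehyde and 1 ug/ml Hoechst. Dosing was a single drug or a fixed anchor-drug dose plus five library-drug doses (not always all listed) in √10 steps, and values are medians of duplicate plates imaged at 4×.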

Dovitinib + Foretinib = compound: CN1CCN(c2ccc3nc(-c4c(N)c5c(F)cccc5[nH]c4=O)[nH]c3c2)CC1 [Dovitinib] + COc1cc2c(Oc3ccc(NC(=O)C4(C(=O)Nc5ccc(F)cc5)CC4)cc3F)ccnc2cc1OCCCN1CCOCC1 [Foretinib] (partner 0.25 µM)
Outline: as §1

Dovitinib + Decitabine = compound: CN1CCN(c2ccc3nc(-c4c(N)c5c(F)cccc5[nH]c4=O)[nH]c3c2)CC1 [Dovitinib] + Nc1ncn([C@H]2C[C@H](O)[C@@H](CO)O2)c(=O)n1 [Decitabine] (partner 2 µM)
Outline: as §1

Dovitinib + Luminespib = compound: CN1CCN(c2ccc3nc(-c4c(N)c5c(F)cccc5[nH]c4=O)[nH]c3c2)CC1 [Dovitinib] + CCNC(=O)c1noc(-c2cc(C(C)C)c(O)cc2O)c1-c1ccc(CN2CCOCC2)cc1 [Luminespib] (partner 0.01 µM)
Outline: as §1

| Cell Line | relative viability (Dovitinib + Dasatinib; first compound 0.02 µM) | relative viability (Dovitinib + Dasatinib; first compound 0.06325 µM) | relative viability (Dovitinib + Dasatinib; first compound 0.2 µM) | relative viability (Dovitinib + Dasatinib; first compound 0.6325 µM) | relative viability (Dovitinib + Dasatinib; first compound 2 µM) | relative viability (Dovitinib + Foretinib; first compound 0.02 µM) | relative viability (Dovitinib + Foretinib; first compound 0.06325 µM) | relative viability (Dovitinib + Foretinib; first compound 0.2 µM) | relative viability (Dovitinib + Foretinib; first compound 0.6325 µM) | relative viability (Dovitinib + Foretinib; first compound 2 µM) | relative viability (Dovitinib + Decitabine; first compound 0.02 µM) | relative viability (Dovitinib + Decitabine; first compound 0.06325 µM) | relative viability (Dovitinib + Decitabine; first compound 0.2 µM) | relative viability (Dovitinib + Decitabine; first compound 0.6325 µM) | relative viability (Dovitinib + Decitabine; first compound 2 µM) | relative viability (Dovitinib + Luminespib; first compound 0.02 µM) | relative viability (Dovitinib + Luminespib; first compound 0.06325 µM) | relative viability (Dovitinib + Luminespib; first compound 0.2 µM) | relative viability (Dovitinib + Luminespib; first compound 0.6325 µM) | relative viability (Dovitinib + Luminespib; first compound 2 µM) |
| --- | --- | --- | --- | --- | --- | --- | --- | --- | --- | --- | --- | --- | --- | --- | --- | --- | --- | --- | --- | --- |
| NCI-H3122 | 0.721 | 0.857 | 0.914 | 0.832 | 0.749 | 1.06 | 0.963 | 0.875 | 0.985 | 0.853 | 0.493 | 0.431 | 0.447 | 0.48 | 0.374 | 0.0862 | 0.096 | 0.092 | 0.0979 | 0.112 |
| PC-3 [JPC-3] | 1.03 | 0.999 | 0.967 | 1 | 0.986 | 1.08 | 1 | 1.1 | 1.01 | 1.05 | 0.949 | 0.882 | 0.859 | 0.804 | 0.898 | 0.681 | 0.695 | 0.722 | 0.782 | 0.71 |
| PC-14 | 0.257 | 0.273 | 0.238 | 0.3 | 0.331 | 0.976 | 0.91 | 0.945 | 0.945 | 0.914 | 0.21 | 0.224 | 0.241 | 0.217 | 0.22 | 0.147 | 0.158 | 0.15 | 0.17 | 0.16 |
| RERF-LC-KJ | 0.842 | 0.842 | 0.998 | 0.765 | 0.915 | 0.832 | 0.905 | 0.96 | 0.886 | 0.858 | 0.709 | 0.729 | 0.701 | 0.685 | 0.637 | 1.32 | 1.25 | 1.4 | 1.19 | 1.47 |
| SK-LU-1 | 0.167 | 0.176 | 0.21 | 0.185 | 0.19 | 0.875 | 0.904 | 0.789 | 0.773 | 0.845 | 0.614 | 0.636 | 0.662 | 0.758 | 0.572 | 0.203 | 0.19 | 0.204 | 0.18 | 0.198 |
| SK-MES-1 | 0.349 | 0.426 | 0.417 | 0.414 | 0.477 | 0.895 | 0.993 | 0.927 | 0.86 | 0.919 | 0.358 | 0.404 | 0.381 | 0.414 | 0.348 | 0.653 | 0.949 | 0.785 | 0.661 | 0.887 |
| SW 1573 | 0.461 | 0.502 | 0.513 | 0.409 | 0.651 | 0.837 | 0.913 | 0.877 | 0.88 | 0.885 | 0.479 | 0.516 | 0.612 | 0.397 | 0.629 | 0.264 | 0.214 | 0.275 | 0.525 | 0.29 |
| UMC-11 | 0.423 | 0.481 | 0.492 | 0.493 | 0.492 | 1.05 | 1.04 | 1.01 | 1 | 1.05 | 0.614 | 0.589 | 0.64 | 0.575 | 0.715 | 0.964 | 1.03 | 0.979 | 1 | 0.996 |
